This passage reports IC50 results from patent US7999108B2, “Benzyl amines, a process for their production and their use as anti-inflammatory agents” (Bayer Schering Pharma AG, priority 2006, dated 2011).

For assay [1], the target named is T1, glucocorticoid receptor (GR) (Homo sapiens, UniProt P04150).
T1 construct: made in house; host or cells: Sf9 insect cells infected with recombinant baculovirus; cytosol preparation
T1 sequence (P04150 1-777): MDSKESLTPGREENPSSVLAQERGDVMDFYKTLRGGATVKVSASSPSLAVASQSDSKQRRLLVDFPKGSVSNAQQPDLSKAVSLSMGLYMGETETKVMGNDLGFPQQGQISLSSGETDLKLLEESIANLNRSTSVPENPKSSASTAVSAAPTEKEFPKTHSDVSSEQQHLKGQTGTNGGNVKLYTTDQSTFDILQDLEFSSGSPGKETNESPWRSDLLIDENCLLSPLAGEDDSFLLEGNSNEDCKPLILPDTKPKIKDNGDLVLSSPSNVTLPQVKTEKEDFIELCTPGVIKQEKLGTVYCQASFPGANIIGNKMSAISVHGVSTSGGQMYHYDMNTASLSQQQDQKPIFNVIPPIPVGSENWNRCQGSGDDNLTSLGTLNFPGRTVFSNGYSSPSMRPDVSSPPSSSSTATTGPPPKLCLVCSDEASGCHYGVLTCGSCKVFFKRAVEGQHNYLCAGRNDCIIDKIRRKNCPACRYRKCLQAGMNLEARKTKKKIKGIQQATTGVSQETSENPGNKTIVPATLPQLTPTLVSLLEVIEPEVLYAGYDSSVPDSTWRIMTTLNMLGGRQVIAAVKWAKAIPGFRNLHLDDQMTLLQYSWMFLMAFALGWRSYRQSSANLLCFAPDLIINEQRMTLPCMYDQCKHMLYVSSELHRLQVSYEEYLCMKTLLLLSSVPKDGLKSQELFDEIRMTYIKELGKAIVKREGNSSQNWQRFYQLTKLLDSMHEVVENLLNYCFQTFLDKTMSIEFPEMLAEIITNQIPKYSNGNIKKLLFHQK
Put plainly: Binding to the glucocorticoid receptor (GR), recombinantly produced receptor, Sf9 cytosol preparations. As to conditions: recombinant GR, cytosol of baculovirus-infected Sf9 cells, reference [3H]-dexamethasone. From the text:
The binding of the substances to the glucocorticoid receptor (GR) and other steroid hormone receptors (mineral corticoid receptor (MR), progesterone receptor (PR) and androgen receptor (AR)) is examined with the aid of recombinantly produced receptors. Cytosol preparations of Sf9 cells, which had been infected with recombinant baculoviruses, which code for the GR, are used for the binding studies. In comparison to reference substance [^3H]-dexamethasone, the substances show a high to very high affinity to GR.

Assay [2] deals with secretion of cytokine IL-8 in human monocyte cell line THP-1 triggered by lipopolysaccharide (LPS). Nature of the assay: Inhibition of LPS-triggered IL-8 secretion in THP-1 cells (ELISA). Format: cell-based. The conditions noted are these: IL-8 in supernatant by ELISA, read-out: IC50(IL8). The protocol:
The concentration of the cytokines was determined in the supernatant by means of commercially available ELISA kits.
Background: ELISA stands for enzyme-linked immunosorbent assay.

Broadly, the IC50 is the concentration that gives 50% inhibition. For `COc1cccc(C(Nc2cccc3nc(C)ccc23)C(O)(CCl)C(F)(F)F)c1` (centres unmarked) [Example 3], the IC50 in assay [1] turned out to be 64 nM; in assay [2] it was 25 nM.
